A short description of data set [1]: Stability studies at 37 °C in complete culture medium and CEM-SS cell extracts. It counts as in vitro ADME. To be noted: for t1/2 cell extracts (half-life of decomposition): CEM-SS cell extracts, 0.1 mM.
Data set [2] deals with HEL cell cultures. The following applies: human.
The test system of data set [3] is WT HBV. The class given is cell-based.
For data set [4] the following is noted: cited from earlier work.

Regarding `Nc1ncnc2c1ncn2CCOCP(=O)([O-])[S-].[Na+].[Na+]` (stereo not shown) [S-PMEA 3, {[2-(6-Amino-9H-purin-9-yl)ethoxy]methyl}phosphonothioic acid], the “t1/2 cell extracts (half-life of decomposition)” value in data set [1] is listed as “Stable ^c”. For the same molecule, the Minimum cytotoxic concentration in data set [2] was over 200 µM. Further, in data set [3], the “Potency relative to PMEA (more potent)” value is listed as 1.5–2.5 fold.
In the case of `Nc1ncnc2c1ncn2CCOCP(=O)(O)O` [PMEA, 9-(2-Phosphonomethoxyethyl)adenine, reference compound], the “Stability in all tested media” value in data set [4] is given as “stable”. Also, the Minimum cytotoxic concentration in data set [2] is over 200 µM.
`C[C@H](Cn1cnc2c(N)ncnc21)OCP(=O)(O)O` [PMPA, (R)-9-(2-Phosphonomethoxypropyl)-adenine, reference compound]: the “Stability in all tested media” value in data set [4] is “stable”. In data set [2], this molecule showed a Minimum cytotoxic concentration of over 200 µM.
With `C[C@H](Cn1cnc2c(N)ncnc21)OCP(=O)([O-])[S-].[Na+].[Na+]` (stereo partly drawn) [S-PMPA 4, ({[(2R)-1-(6-Amino-9H-purin-9-yl)propan-2-yl]oxy}methyl)phosphonothioic acid], the “t1/2 cell extracts (half-life of decomposition)” value in data set [1] was “Stable ^c”. The “Degradation in complete culture medium after 24 h” value in data set [1] (complete culture medium, 24 h) turned out to be 20%. For the same molecule, in data set [2], the Minimum cytotoxic concentration was over 200 µM.

Source of the values: PMC7115536 (European Journal of Medicinal Chemistry, 2011).
